Measurements taken from US5686495A, “Substituted hydrazinedicarboximidamides and methods of use thereof” (Cambridge NeuroScience, Inc., priority 1995, dated 1997).
Structures can show the parent of a compound that is named as a salt. Where two headings read alike, the source gives them in different places.

Assays:
[1] = tested on: 3H-glutamate release from rat brain synaptosomes; test: Inhibition of K+-evoked 3H-glutamate release from synaptosomes (rapid superfusion); type: cell-based; settings: Rattus norvegicus; for activity at 30 µM / activity at 100 µM: read-out: relative level of glutamate release; for inhibition at 10 µM: read-out: Inhibition of Glutamate Release (Persistent Component), % Inhibition @ 10 uM
Experimental: To study the release of presynaptic ^3 H-glutamate, synaptosomes from young rats were used. CD Male rats of 4 to 6 weeks (50-75 g) were used for the preparation of synaptosomes. Rats were killed by decapitation with guillotine and the skull bone was opened in the center with the pointed blade of dissection scissors. The bone is then peeled away with a bone cutter and the brain is pried with a micro spatula. The cerebellum is removed and the rest of the brain is placed in 35 ml of 0.32M Sucrose solution and homogenized in a Thomas glass teflon homogenizer C at the maximum power setting (about 450 rpm) with 16 strokes. The pestle is rinsed with 5 ml of sucrose solution and added to the homogenate. The homogenate is centrifuged for 10 min at 3500 rpm (1500 g) in a SS-34 rotor in Sorvall RC-5B. The resulting pellet (P1) is discarded and the supernatant (S1) is recentrifuged for 20 min at 8700 rpm (8500 g). The supernatant (S2) is discarded and the pellet (P2) is resuspended in 5 ml of 0.32M sucrose and hand homogenized with 4 strokes (Thomas C) and the volume was made up to 8 ml. This homogenate was layered on 20 ml of 0.8M sucrose solution in two centrifuge tubes and spun for 25 minutes at 8700 rpm (8500 g). At the end of this spin, most of the myelin stays at the interphase of 0.32M and 0.8M sucrose and mitochondria pellet as a brown pellet. The synaptosomes are dispersed in the 0.8M sucrose. Using a 10 ml pipette, the 0.8M sucrose layer is collected (without disturbing the top myelin layer or the pellet) and diluted slowly with an equal volume of chilled basal buffer, while stirring gently with a Pasteur pipette. This diluted solution is centrifuged for 10 min at 10,000 rpm (12,000 g) and the pellet is resuspended in 1.5 ml of basal buffer and hand-homogenized in a Wheaton glass-glass 7 ml homogenizer with 8 strokes.
The synaptosomal homogenate is diluted 1 ml to 10 ml with basal buffer. This dilution gives a protein concentration of 500 to 600 μg/ml. One hundred μl of this diluted prep with 50-60 μg of protein is used for each superfusion event. […] The diluted synaptosomal solution was kept on ice until the end of the experiment.
^3 H-glutamate (purchased from NEN) is stored in the refrigerator. Pipette 6 μl ([…]; 40 to 55 Ci/mmol) into a disposable test tube. Add 100 μl of diluted prep and mix gently on vortex and incubate at 30° C. for 10 min. ^3 H-glutamate is taken up by sodium-coupledglutamate transporter present in synaptosomal membranes. After 10 min, dilute the incubation mixture with 690 μl of basal buffer. This solution is then transferred in Tygon tubing that is connected to the synaptosome loading chamber. Using a syringe filler with air, the solution is forced through the Millipore SC--GF/F--Millipore SC filter sandwich. These filters retain the synaptosomes and the solution flows through.
An important component of the superfusion setup is the custom made stainless steel "General Valve" three-valve solenoid operated superfusion chamber with an outlet for the effluent. The three inlets are connected to stainless steel buffer reservoirs that contain (1) wash buffer, (2) control buffer and (3) experimental buffer which are kept under 40 psi of nitrogen gas through teflon tubing connections. The superfusion is controlled through a menu-driven program on an Apple IIe computer. See Turner, J. T. et al., Anal. Biochem. 178:8-16 (1989), and U.S. Pat. No. 4,891,185, the disclosures of which are fully incorporated by reference herein.
The superfusion chamber has a teflon bushing and a stainless steel washer fixed with the flat surface facing the filters. A GF/B filter disc is placed first in the chamber to eliminate the switching related artifacts. The synaptosome loaded sandwich is then placed facing the synaptosomes into the flow followed by RA filter, stainless steel screen and a washer with the flat side facing the screen.

[2] = tested on: potassium-stimulated 45Ca uptake of synaptosomes; test: Potassium-stimulated 45Ca uptake into synaptosomes; type: cell-based, rat
Experimental: Several compounds were also tested to determine whether the Ca^2+ dependent and independent components of glutamate release are related to the blockage of ^45 Ca uptake. Calcium uptake is one step in the cascade of events which occur in neuronal cell death from ischemia. See Bassaclough and Leach, Current Patents Ltd., 2-27. The Ca-flux protocol is as follows. Rat brain synaptosomes were prepared according to Hajos, Brain Res. 93:485 (1975). Synaptosomes were suspended in low potassium "LK" buffer (containing 3 mM KCl) at 2 mg/ml. […] After 5 seconds, the ^45 Ca flux was stopped with 0.9 ml quench solution (LK+10 mM EGTA). The solution was filtered under vacuum and the filters washed with 15 ml of quench buffer. The effect of drug is expressed as % inhibition (or block) of control potassium-stimulated ^45 Ca influx. This method is an adaptation of the method disclosed by Nachsen and Blaustein, J. Physiol. 361:251-268 (1985).

[3] = Rattus norvegicus, read-out: Inhibition of 45Ca Uptake, % Inhibition @ 10 uM (SEM)
[4] = Rattus norvegicus; read-out: Inhibition of 45Ca Uptake, IC50
[5] = Rattus norvegicus, read-out: % Uptake vs. Control
[6] = 10 μM; potassium-stimulated uptake of calcium into synaptosomes

## N=C(Nc1ccccc1I)N[C@H]1C[C@H]2CC[C@@H]1C2 (relative stereo) [N-((±)-endo-2-norbornyl)-N' (2-iodophenyl)guanidine]
[1]
  activity at 30 µM: 77%

## Cc1ccccc1CNCc1ccccc1C [Di-(o-methyl)benzyl)amine]
[1]
  activity at 30 µM: 100%

## C1CCC(N=C(NNC(=NC2CCCCC2)NC2CCCCC2)NC2CCCCC2)CC1 [N,N',N",N"'-Tetracyclohexyl-Hydrazinedicarboximidamide]
[2]; [3]
  inhibition at 10 µM: 74%
[2]; Rattus norvegicus; FIG. 6 curve fits; read-out: IC50, inhibition of potassium-stimulated Ca uptake of synaptosomes (FIG. 6)
  IC50: 3.3 µM
[2]; [4]
  IC50: 3 µM
[1]
  inhibition at 10 µM: 67%
  activity at 30 µM: 51%

## N=C(Nc1ccc2cccc3c2c1CC3)Nc1ccc2cccc3c2c1CC3 [N,N'-Bis (3-acenaphthyl)guanidine, N,N'-Bis (3-Acenaphthyl)Guanidine Hydrobromide]
[2]; [3]
  inhibition at 10 µM: 36%
[2]; Rattus norvegicus, read-out: Inhibition of 45Ca Uptake, IC50
  IC50: 11 µM

## N=C(NN1CCCc2ccccc21)NN1CCCc2ccccc21 [N,N'-Bis(1,2,3,4-tetrahydro-1-quinolinyl)-guanidine]
[2]; [5]
  activity at 10 µM: 87%

## N=C(NC1CCc2ccccc21)NC1CCc2ccccc21 (centres unmarked) [N,N'-Bis(indan-1-yl)-guanidine]
[2]; [5]
  activity at 10 µM: 88%

## CCc1cccc(N2CCN(c3cccc(CC)c3)C2=N)c1 [N,N'-Bis(m-ethylphenyl)-2-imino-imidazolidine]
[2]; [5]
  activity at 10 µM: 101%

## Cc1ccccc1N1CCCCN(c2ccccc2C)C1=N [N,N'-Bis(o-tolyl)-N,N'-butanyl(bridge)-guanidine]
[2]; [5]
  activity at 10 µM: 119%

## CC(C)(C)c1ccc(NC(=N)Nc2ccc(C(C)(C)C)cc2)cc1 [N,N'-Bis(p-tert.-butylphenyl) guanidine]
[2]; [3]
  inhibition at 10 µM: 47%

## CC(C)c1ccc(NC(=N)Nc2ccc(C(C)C)cc2)cc1 [N,N'-Di-(4-isopropylphenyl)guanidine]
[2]; [3]
  inhibition at 10 µM: 48%
[2]; [4]
  IC50: 19 ± 7 µM

## N=C(Nc1cccc2ccccc12)Nc1cccc2ccccc12 [N,N'-di-(1-naphthyl)guanidine]
[2]; [3]
  inhibition at 10 µM: 27%
[2]; [4]
  IC50: 23.6 ± 10 µM
[1]
  inhibition at 10 µM: 31%
  activity at 30 µM: 19%
  activity at 100 µM: 29%

## N=C(Nc1ccccc1I)Nc1ccccc1I [N,N'-di-(2-iodophenyl)guanidine]
[1]
  activity at 100 µM: 61%

## CCc1cccc(NC(=N)N(C)c2cccc(CC)c2)c1 [N,N'-di-(3-ethylphenyl)-N-methylguanidine]
[1]
  activity at 30 µM: 88%

## Cc1ccccc1NC(=N)Nc1ccccc1C [N,N'-di-(o-tolyl)guanidine]
[1]
  activity at 100 µM: 91%

## CCc1cccc(N(C)C(=N)Nc2cccc3ccccc23)c1 [N-(1-naphthyl)-N'-(m-ethylphenyl)-N'-methylguanidine]
[1]; 30 μM, Control = 100, K+ depolarization
  activity at 30 µM: 76%
[1]; 100 μM, Control = 100, K+ depolarization
  activity at 100 µM: 21%

## CC(C)c1ccccc1NC(=N)Nc1cccc2ccccc12 [N-(1-naphthyl)-N'-(o-isopropylphenyl)guanidine]
[1]
  activity at 30 µM: 100%

## CC(C)c1ccccc1NC(=N)N(C)c1cccc2ccccc12 [N-(1-naphthyl)-N-methyl-N'-(o-isopropylphenyl)guanidine]
[1]
  activity at 30 µM: 95%

## CC(C)c1ccc(NC(=N)Nc2ccc3c4c(cccc24)CC3)cc1 [N-(3- and 5-Acenaphthyl)-N'-(4-isopropylphenyl)-guanidine.HCl]
[2]; [3]
  inhibition at 10 µM: 68%
[2]; [4]
  IC50: 6.5 ± 1 µM

## CCc1cccc(NC(=N)Nc2cccc3ccccc23)c1 [N-(3-ethylphenyl)-N'-(1-naphthyl)guanidine]
[1]
  activity at 30 µM: 59%

## N=C(Nc1cccc2ccccc12)Nc1ccc2c3c(cccc13)CC2 [N-(5-acenaphthyl)-N'-(1-naphthyl)guanidine]
[2]; [3]
  inhibition at 10 µM: 40 ± 6%
[2]; [4]
  IC50: 16.2 ± 0.4 µM

## N=C(Nc1ccc2c3c(cccc13)CC2)NC12CC3CC(CC(C3)C1)C2 [N-(5-acenaphthyl)-N'-(adamant-1-yl)guanidine]
[2]; [3]
  inhibition at 10 µM: 47 ± 11%
[2]; [4]
  IC50: 9.7 ± 3 µM

## CCc1cccc(N(C)C(=N)Nc2cccc3ccc(=O)oc23)c1 [N-(8-Aminocoumarinyl)-N'-(m-ethylphenyl)-N'-methyl-guanidine]
[2]; [5]
  activity at 10 µM: 151%

## N=C(Nc1cccc2ccccc12)NC12CC3CC(CC(C3)C1)C2 [N-(Adamantan-1-yl)-N' (α-naphthyl)guanidine]
[2]; [3]
  inhibition at 10 µM: 31%

## N=C(Nc1cccc2nsnc12)NC12CC3CC(CC(C3)C1)C2 [N-(Adamantan-1-yl)-N'-(4,5-benzo-2-thia-1,3-diazol-6-yl)guanidine]
[2]; [6]
  % Uptake vs. Control: 98%

## N=C(NC1C2CC3CC(C2)CC1C3)NC12CC3CC(CC(C3)C1)C2 (centres unmarked) [N-(Adamantan-1-yl)-N'-(adamantan-2-yl)guanidine]
[2]; [3]
  inhibition at 10 µM: 49%

## N=C(NC1CCCCC1)NN1CCCCC1 [N-(Cyclohexyl)-N'-(1-piperidinyl)-guanidine]
[2]; [5]
  activity at 10 µM: 108%

## N=C(Nc1ccccc1I)NC12CC3CC(CC(C3)C1)C2 [N-(adamantan-1-yl)-N'-(2-iodophenyl)guanidine]
[1]
  activity at 30 µM: 39%

## Cc1ccccc1NC(=N)NC12CC3CC(CC(C3)C1)C2 [N-(adamantan-1-yl)-N'-(2-methylphenyl)guanidine]
[1]
  activity at 30 µM: 52%
  activity at 100 µM: 45%

## N=C(NC1CCCCC1)NC12CC3CC(CC(C3)C1)C2 [N-(adamantan-1-yl)-N'-cyclohexylguanidine]
[1]
  activity at 30 µM: 120%

## N=C(Nc1ccccc1I)NC1C2CC3CC(C2)CC1C3 (centres unmarked) [N-(adamantan-2-yl)-N'-(2-iodophenyl)guanidine]
[1]
  activity at 30 µM: 74%

## Cc1ccccc1NC(=N)NC1C2CC3CC(C2)CC1C3 (centres unmarked) [N-(adamantan-2-yl)-N'-(2-methylphenyl)guanidine]
[1]
  activity at 30 µM: 100%

## CCOC(=O)c1cc2cccc(NC(=N)N(C)c3cccc(CC)c3)c2o1 [N-(m-Ethylphenyl)-N'-(2-carboethoxy-7-benzofuranyl)-N-methyl guanidine]
[2]; [5]
  activity at 10 µM: 71%

## N=C(Nc1cccc2ccccc12)NN1CCCCC1 [N-(α-Naphthyl)-N'-(1-piperidinyl)-guanidine]
[2]; [5]
  activity at 10 µM: 131%

## CCc1cccc(NC(=NC#N)Nc2cccc3ccccc23)c1 [N-(α-Naphthyl)-N'-(m-ethylphenyl)-N"-cyano-guanidine]
[2]; [5]
  activity at 10 µM: 95%

## N=C(Nc1ccccc1I)Nc1cccc2ccccc12 [N-(α-naphthyl)-N'-(2-iodophenyl)guanidine]
[1]
  activity at 30 µM: 77%

## N=C(NCC12CC3CC(CC(C3)C1)C2)NCC12CC3CC(CC(C3)C1)C2 [N-N'-Bis(1-Adamantanemethyl)-guanidine]
[2]; [5]
  activity at 10 µM: 111%

## Cc1ccccc1NC(=N)NC1CCCCC1 [N-cyclohexyl-N'-(2-methylphenyl)guanidine]
[1]
  activity at 30 µM: 100%

## N-(α-Naphthyl)-N'-(4-phenylpiperidinyl)-guanidine
[2]; [6]
  % Uptake vs. Control: 79%
